Key:
[1] = Toxicity in CD-1 mouse xenografted with human SJSA-1 cells assessed as body weight loss at 50 to 100 mg/kg, po administered once daily for 7 consecutive days followed by 2 weeks off dosing schedule; type: organism-based; details: in vivo, 504 h, dose 50-100 mg/kg, time 3 weeks
[2] = Intrinsic clearance in human hepatocytes; type: ADME, cell-based, Hepatocyte; details: read-out: CLH
[3] = Intrinsic clearance in dog hepatocytes; type: ADME, cell-based, Canis lupus familiaris, Hepatocyte; details: read-out: CLH
[4] = Unbound clearance in dog; type: ADME, Canis lupus familiaris; details: in vivo
[5] = target: T1, Cytochrome P450 3A4 (Homo sapiens, UniProt P08684); assay: Activation of CYP3A4 (unknown origin); type: ADME
T1 sequence (P08684 whole entry): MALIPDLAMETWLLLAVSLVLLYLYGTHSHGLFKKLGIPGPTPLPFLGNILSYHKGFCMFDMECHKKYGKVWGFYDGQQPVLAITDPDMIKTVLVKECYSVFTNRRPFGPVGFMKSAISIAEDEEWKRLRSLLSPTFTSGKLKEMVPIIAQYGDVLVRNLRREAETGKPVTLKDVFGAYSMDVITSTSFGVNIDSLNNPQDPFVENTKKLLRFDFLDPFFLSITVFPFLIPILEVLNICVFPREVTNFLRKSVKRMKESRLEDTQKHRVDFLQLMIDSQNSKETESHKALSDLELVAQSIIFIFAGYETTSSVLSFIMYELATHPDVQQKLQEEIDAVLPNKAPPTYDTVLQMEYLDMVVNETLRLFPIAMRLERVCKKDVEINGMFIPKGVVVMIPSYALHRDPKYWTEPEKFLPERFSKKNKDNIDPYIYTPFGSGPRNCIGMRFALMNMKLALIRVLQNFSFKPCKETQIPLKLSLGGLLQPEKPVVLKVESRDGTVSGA

[6] = Bioavailability in dog; type: ADME, organism-based, Canis lupus familiaris; details: in vivo
[7] = Bioavailability in rat at 1 mg/kg, po or 0.5 mg/kg, iv; type: ADME, organism-based; details: in vivo
[8] = Clearance in rhesus monkey plasma at 0.5 mg/kg, iv; type: ADME, organism-based, Macaca mulatta
[9] = Clearance in rat plasma at 1 mg/kg, po or 0.5 mg/kg, iv; type: ADME, organism-based
[10] = Plasma protein binding in dog; type: ADME, cell-free, Canis lupus familiaris; details: read-out: PPB (converted)
[11] = Bioavailability in rat; type: ADME, organism-based; details: in vivo
[12] = test system: Mus musculus; assay: In vivo activation of p53 pathway in human SJSA-1 cells xenografted in po dosed CD-1 nu/nu mouse assessed as induction of p21 mRNA expression measured after 6 hrs; type: functional, organism-based; details: dose 100.0 mg/kg
[13] = Volume of distribution in rat at 1 mg/kg, po or 0.5 mg/kg, iv; type: ADME, organism-based; details: in vivo
[14] = Mean residence time in rat; type: ADME; details: in vivo
[15] = Terminal half life in rat at 1 mg/kg, po or 0.5 mg/kg, iv; type: ADME, organism-based; details: in vivo, read-out: beta t1/2 (converted)
[16] = Plasma protein binding in rat; type: ADME, cell-free; details: read-out: PPB (converted)
[17] = Terminal half life in dog at 0.5 mg/kg, po or 0.25 mg/kg, iv; type: ADME, organism-based, Canis lupus familiaris; details: in vivo, read-out: beta t1/2 (converted)
[18] = Volume of distribution in rhesus monkey at 0.5 mg/kg, iv; type: ADME, organism-based, Macaca mulatta; details: in vivo
[19] = Intrinsic clearance in rat hepatocytes; type: ADME, cell-based, Hepatocyte; details: read-out: CLH
[20] = Plasma protein binding in rhesus monkey; type: ADME, cell-free, Macaca mulatta; details: read-out: PPB (converted)
[21] = Volume of distribution in dog at 0.5 mg/kg, po or 0.25 mg/kg, iv; type: ADME, organism-based, Canis lupus familiaris; details: in vivo
[22] = Bioavailability in dog at 0.5 mg/kg, po or 0.25 mg/kg, iv; type: ADME, organism-based, Canis lupus familiaris; details: in vivo
[23] = Intrinsic Clearance in rhesus monkey hepatocytes; type: ADME, cell-based, Macaca mulatta, Hepatocyte; details: read-out: CLH
[24] = target: Cytochrome P450 2D6 (Homo sapiens, UniProt P10635); assay: Inhibition of CYP2D6 (unknown origin); type: ADME
Chain of Cytochrome P450 2D6 (P10635 whole entry): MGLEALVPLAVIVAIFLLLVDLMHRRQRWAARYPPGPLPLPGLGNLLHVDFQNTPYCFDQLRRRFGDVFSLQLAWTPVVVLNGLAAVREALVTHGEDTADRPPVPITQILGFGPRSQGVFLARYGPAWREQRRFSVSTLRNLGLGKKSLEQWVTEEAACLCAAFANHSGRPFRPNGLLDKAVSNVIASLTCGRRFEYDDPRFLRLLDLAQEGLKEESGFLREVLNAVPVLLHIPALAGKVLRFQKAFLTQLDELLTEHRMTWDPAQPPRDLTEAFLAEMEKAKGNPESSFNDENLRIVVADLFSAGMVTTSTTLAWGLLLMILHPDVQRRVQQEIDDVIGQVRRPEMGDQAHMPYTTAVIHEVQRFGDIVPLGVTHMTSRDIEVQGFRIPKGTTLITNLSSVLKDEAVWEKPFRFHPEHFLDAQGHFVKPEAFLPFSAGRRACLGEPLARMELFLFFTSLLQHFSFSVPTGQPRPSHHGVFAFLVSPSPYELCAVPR

[25] = Plasma protein binding in human; type: ADME, cell-free; details: read-out: PPB (converted)
[26] = Unbound clearance in rat; type: ADME; details: in vivo
[27] = Clearance in dog plasma at 0.5 mg/kg, po or 0.25 mg/kg, iv; type: ADME, organism-based, Canis lupus familiaris
[28] = Mean residence time in dog; type: ADME, Canis lupus familiaris; details: in vivo
[29] = Terminal half life in rhesus monkey at 0.5 mg/kg, iv; type: ADME, organism-based, Macaca mulatta; details: in vivo, read-out: beta t1/2 (converted)
[30] = test system: HCT-116; assay: cells; details: Homo sapiens, HCT-116, 72 h
[31] = target: T2, Cytochrome P450 2C8 (Homo sapiens, UniProt P10632); assay: Inhibition of CYP2C8 (unknown origin); type: ADME
T2 sequence (P10632 whole entry): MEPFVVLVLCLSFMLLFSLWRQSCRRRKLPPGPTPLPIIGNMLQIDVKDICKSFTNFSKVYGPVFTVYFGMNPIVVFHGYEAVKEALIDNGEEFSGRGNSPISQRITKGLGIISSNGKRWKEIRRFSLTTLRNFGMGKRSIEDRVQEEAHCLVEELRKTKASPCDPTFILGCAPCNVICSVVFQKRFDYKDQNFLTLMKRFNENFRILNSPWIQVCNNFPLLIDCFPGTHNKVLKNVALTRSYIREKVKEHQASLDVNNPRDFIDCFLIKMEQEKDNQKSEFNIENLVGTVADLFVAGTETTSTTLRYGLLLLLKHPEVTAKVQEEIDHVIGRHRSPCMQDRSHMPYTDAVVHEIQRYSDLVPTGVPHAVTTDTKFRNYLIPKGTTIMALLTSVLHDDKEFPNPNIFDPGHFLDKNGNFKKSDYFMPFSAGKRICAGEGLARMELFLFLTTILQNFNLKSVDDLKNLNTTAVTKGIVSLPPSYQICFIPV

[32] = test system: SJSA-1; assay: Antitumor activity against human SJSA-1 cells xenografted in po dosed CD-1 nu/nu mouse assessed as tumor growth inhibition administered once daily for 7 consecutive days followed by 2 weeks off dosing schedule; type: functional, organism-based; details: time 3.0 weeks
[33] = target: T1, Cytochrome P450 3A4; assay: Inhibition of CYP3A4 (unknown origin); type: ADME
[34] = Lipophilicity, logD of the compound at pH 7 by RP-HPLC analysis; type: physicochemical; details: buffer
[35] = target: Voltage-gated inwardly rectifying potassium channel KCNH2 (Homo sapiens, UniProt Q12809); assay: Inhibition of human ERG
Chain of Voltage-gated inwardly rectifying potassium channel KCNH2 (Q12809 whole entry): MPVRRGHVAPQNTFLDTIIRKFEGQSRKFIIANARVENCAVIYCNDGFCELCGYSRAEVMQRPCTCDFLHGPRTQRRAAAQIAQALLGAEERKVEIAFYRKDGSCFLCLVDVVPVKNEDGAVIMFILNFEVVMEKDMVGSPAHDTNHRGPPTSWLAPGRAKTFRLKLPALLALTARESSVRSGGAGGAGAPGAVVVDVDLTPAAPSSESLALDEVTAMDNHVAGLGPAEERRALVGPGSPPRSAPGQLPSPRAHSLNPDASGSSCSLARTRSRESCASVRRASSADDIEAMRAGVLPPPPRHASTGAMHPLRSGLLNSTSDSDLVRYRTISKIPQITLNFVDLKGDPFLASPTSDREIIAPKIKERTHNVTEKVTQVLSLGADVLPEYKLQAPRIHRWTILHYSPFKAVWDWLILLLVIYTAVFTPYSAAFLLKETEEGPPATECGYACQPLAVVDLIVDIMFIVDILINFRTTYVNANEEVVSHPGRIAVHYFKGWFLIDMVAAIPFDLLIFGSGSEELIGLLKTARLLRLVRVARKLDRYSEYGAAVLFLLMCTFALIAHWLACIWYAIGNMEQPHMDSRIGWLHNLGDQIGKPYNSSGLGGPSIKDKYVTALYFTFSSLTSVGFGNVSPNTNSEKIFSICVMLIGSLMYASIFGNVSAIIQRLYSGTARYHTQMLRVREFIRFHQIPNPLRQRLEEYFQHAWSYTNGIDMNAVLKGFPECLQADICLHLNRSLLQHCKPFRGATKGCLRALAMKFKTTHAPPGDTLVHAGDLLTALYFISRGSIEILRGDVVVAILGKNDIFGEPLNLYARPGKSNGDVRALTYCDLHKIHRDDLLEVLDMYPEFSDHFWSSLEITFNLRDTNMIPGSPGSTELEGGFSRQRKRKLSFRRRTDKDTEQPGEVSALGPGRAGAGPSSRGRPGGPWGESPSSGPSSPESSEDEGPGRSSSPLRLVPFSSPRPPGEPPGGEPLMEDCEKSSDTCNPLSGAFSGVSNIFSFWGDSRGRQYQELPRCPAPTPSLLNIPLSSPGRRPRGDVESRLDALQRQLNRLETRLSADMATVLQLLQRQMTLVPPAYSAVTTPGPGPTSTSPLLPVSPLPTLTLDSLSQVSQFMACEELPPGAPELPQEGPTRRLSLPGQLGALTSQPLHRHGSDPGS

[36] = target: Cytochrome P450 2C9 (Homo sapiens, UniProt P11712); assay: Inhibition of CYP2C9 (unknown origin); type: ADME
Chain of Cytochrome P450 2C9 (P11712 whole entry): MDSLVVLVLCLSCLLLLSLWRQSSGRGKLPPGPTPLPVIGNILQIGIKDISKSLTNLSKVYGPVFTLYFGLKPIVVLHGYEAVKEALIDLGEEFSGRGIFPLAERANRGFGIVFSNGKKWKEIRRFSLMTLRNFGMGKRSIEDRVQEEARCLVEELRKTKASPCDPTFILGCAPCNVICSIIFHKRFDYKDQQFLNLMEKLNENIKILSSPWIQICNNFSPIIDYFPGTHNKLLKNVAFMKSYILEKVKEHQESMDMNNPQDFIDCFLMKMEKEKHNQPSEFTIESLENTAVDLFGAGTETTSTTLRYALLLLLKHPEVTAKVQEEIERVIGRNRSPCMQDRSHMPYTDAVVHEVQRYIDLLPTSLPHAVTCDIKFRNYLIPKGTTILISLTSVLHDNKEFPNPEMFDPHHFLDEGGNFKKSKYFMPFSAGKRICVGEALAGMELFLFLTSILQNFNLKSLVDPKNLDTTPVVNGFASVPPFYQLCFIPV

[37] = target: E3 ubiquitin-protein ligase Mdm2 (Homo sapiens, UniProt Q00987); assay: Binding affinity to HDM2 (unknown origin)
Chain of E3 ubiquitin-protein ligase Mdm2 (Q00987 whole entry, the tested form may be a part): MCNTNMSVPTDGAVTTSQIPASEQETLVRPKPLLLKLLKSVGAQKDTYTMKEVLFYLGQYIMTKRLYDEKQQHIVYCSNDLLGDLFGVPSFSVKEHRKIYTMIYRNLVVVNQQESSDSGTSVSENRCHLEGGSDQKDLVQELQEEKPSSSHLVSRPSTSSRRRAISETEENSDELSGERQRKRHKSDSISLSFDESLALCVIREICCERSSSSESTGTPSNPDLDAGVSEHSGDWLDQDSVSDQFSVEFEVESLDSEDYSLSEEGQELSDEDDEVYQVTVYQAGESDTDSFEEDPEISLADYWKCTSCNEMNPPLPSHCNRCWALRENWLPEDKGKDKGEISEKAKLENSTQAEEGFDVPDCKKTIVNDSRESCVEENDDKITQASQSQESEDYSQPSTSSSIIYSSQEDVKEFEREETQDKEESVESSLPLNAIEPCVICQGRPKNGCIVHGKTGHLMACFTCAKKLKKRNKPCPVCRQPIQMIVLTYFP

[38] = Selectivity index, ratio of IC50 for inhibition of HDM2/p53 interaction in human HCT-116 cells expressing p53/Bla to IC50 for inhibition of N-terminal thioredoxin-His6 tagged HDM2 (17 to 125 residues)/p53 protein-protein interaction (unknown origin); type: cell-based
[39] = Clearance in rat plasma; type: ADME, cell-free
[40] = target: Tumour suppressor p53/oncoprotein Mdm2 (Homo sapiens, UniProt Q00987); assay: Inhibition of HDM2/p53 interaction in human HCT-116 cells expressing p53RE/Bla incubated for 16 hrs by beta-lactamase reporter gene assay; type: cell-based
Chain of Tumour suppressor p53/oncoprotein Mdm2 (P04637 whole entry): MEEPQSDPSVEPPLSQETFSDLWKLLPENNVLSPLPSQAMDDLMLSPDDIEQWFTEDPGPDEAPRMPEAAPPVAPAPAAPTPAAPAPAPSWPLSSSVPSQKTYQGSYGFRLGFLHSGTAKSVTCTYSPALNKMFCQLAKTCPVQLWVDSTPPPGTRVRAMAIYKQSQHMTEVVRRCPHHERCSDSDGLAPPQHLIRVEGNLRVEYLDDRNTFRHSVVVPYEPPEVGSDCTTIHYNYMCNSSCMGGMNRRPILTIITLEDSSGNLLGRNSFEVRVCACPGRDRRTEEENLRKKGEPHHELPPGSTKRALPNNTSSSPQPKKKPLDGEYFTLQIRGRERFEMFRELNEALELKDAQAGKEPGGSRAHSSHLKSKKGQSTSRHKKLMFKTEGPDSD
Chain of Tumour suppressor p53/oncoprotein Mdm2 (Q00987 whole entry): as the sequence (Q00987 whole entry, the tested form may be a part) above

[41] = Oral bioavailability in rat; type: ADME, organism-based; details: in vivo

Structure (SMILES): C[C@H]1CC[C@H](Cn2c(N3CCO[C@@H]4CCC[C@H]43)nc3cc(-c4noc(=O)[nH]4)nc(-c4cncc(Cl)c4)c32)CC1
- Activity [1]: Non-Toxic
- CLint scaled [2]: 58 mL/min/kg
- CLint scaled [3]: 78 mL/min/kg
- CL free [4]: 122 mL/min/kg
- EC50 [5]: > 30000 nM
- bioavailability [6]: 86%
- bioavailability [7]: 24%
- clearance [8]: 12.4 mL/min/kg
- clearance [9]: 36 mL/min/kg
- fraction unbound [10]: 0.009
- bioavailability [11]: 24%
- Activity [12]: Dose-Dependent Effect
- Vd [13]: 1.3 L/kg
- MRT [14]: 0.6 h
- half-life [15]: 3 h
- fraction unbound [16]: 0.007
- half-life [17]: 4.2 h
- Vd [18]: 0.91 L/kg
- CLint scaled [19]: 251 mL/min/kg
- fraction unbound [20]: 0.006
- Vd [21]: 0.39 L/kg
- bioavailability [22]: 86%
- CLint scaled [23]: 70 mL/min/kg
- IC50 [24]: > 50000 nM
- fraction unbound [25]: 0.008
- CL free [26]: 5214 mL/min/kg
- clearance [27]: 1.4 mL/min/kg
- MRT [28]: 5.9 h
- half-life [29]: 1.6 h
- IC50 [30]: 122 nM
- IC50 [31]: 800 nM
- Activity [32]: Dose-Dependent Effect
- IC50 [33]: > 50000 nM
- logD [34]: 2.46
- IC50 [35]: 12000 nM
- IC50 [36]: 31000 nM

Structure (SMILES): CCC[C@H]1N(C(=O)c2ncccc2C(F)(F)F)CCC[C@@]1(Oc1csc(C(F)(F)F)c1)C(=O)N1CCC(O)(c2ccccc2O[C@H](C)CCC2(C(=O)O)CCC2)CC1
- Kd [37]: 3.8 nM

Structure (SMILES): C[C@@H](Nc1nc(-c2noc(=O)[nH]2)nc2nc(N3CCOC[C@H]3c3ccccc3)n(C[C@H]3CC[C@H](C)CC3)c12)C1CCC1
- Ratio IC50 [38]: 100
- MRT [14]: 0.73 h
- IC50 [30]: 446 nM
- clearance [39]: 73 mL/min/kg
- IC50 [40]: 64 nM
- logD [34]: 3.27
- bioavailability [41]: 2%
